Source: ChEMBL document CHEMBL1201862, “PubChem BioAssay data set” (2004)
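Method: 48-hour compound exposure of cells in 96-well plates, five concentrations, linear interpolation of endpoints. Here, GI50 denotes the concentration required for 50% inhibition of growth.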 The source made the active and inactive calls. No stated cut-off is given here; in the data, active = GI50 up to about 1.1 µM and inactive = higher.

Assays:
Assay in all cases: inhibition of tumour cell growth, NCI panel, 48 h
[1] = test system: RPMI-8226
[2] = test system: UACC-257
[3] = test system: KM12
[4] = test system: NCI-H226
[5] = test system: OVCAR-8
[6] = test system: XF498
[7] = test system: NCI-H522
[8] = test system: M19-MEL
[9] = test system: SF-268
[10] = test system: U-251
[11] = test system: SK-MEL-2
[12] = test system: OVCAR-4
[13] = test system: HOP-18
[14] = test system: Malme-3M
[15] = test system: COLO 205
[16] = test system: IGROV-1
[17] = test system: SF-295
[18] = test system: K562
[19] = test system: ACHN
[20] = test system: CAKI-1
[21] = test system: NCI-H460
[22] = test system: HT-29
[23] = test system: M14
[24] = test system: SK-MEL-28
[25] = test system: TK-10
[26] = test system: SF-539
[27] = test system: 786-0
[28] = test system: OVCAR-3
[29] = test system: DMS-114
[30] = test system: HCT-116
[31] = test system: HL-60
[32] = test system: HCT-15
[33] = test system: OVCAR-5
[34] = test system: SN12C
[35] = test system: A549
[36] = test system: UO-31
[37] = test system: UACC-62
[38] = test system: EKVX
[39] = test system: SK-MEL-5
[40] = test system: MOLT-4
[41] = test system: NCI-H23
[42] = test system: HOP-62
[43] = test system: LOX IMVI
[44] = test system: RXF 393
[45] = test system: CCRF-CEM
[46] = test system: LXFL 529
[47] = test system: SW-620
[48] = test system: HCC 2998
[49] = test system: HOP-92
[50] = test system: SNB-78
[51] = test system: SK-OV-3
[52] = test system: SNB-19
[53] = test system: DLD-1
[54] = test system: SR
[55] = test system: SNB-75
[56] = test system: KM-20L2
[57] = test system: DMS-273
[58] = test system: A498
[59] = test system: NCI/ADR-RES
[60] = test system: MCF7

SMILES: COc1ccc2c(c1)[n+]([O-])c(C(C)=O)c(C)[n+]2[O-]
- GI50 [1]: > 100 µM (inactive)
- GI50 [2]: > 100 µM (inactive)
- GI50 [3]: > 100 µM (inactive)
- GI50 [4]: > 100 µM (inactive)
- GI50 [5]: > 100 µM (inactive)
- GI50 [6]: > 100 µM (inactive)
- GI50 [7]: > 100 µM (inactive)
- GI50 [8]: > 100 µM (inactive)
- GI50 [9]: > 100 µM (inactive)
- GI50 [10]: > 100 µM (inactive)
- GI50 [11]: > 100 µM (inactive)
- GI50 [12]: > 100 µM (inactive)
- GI50 [13]: > 100 µM (inactive)
- GI50 [14]: > 100 µM (inactive)
- GI50 [15]: > 100 µM (inactive)
- GI50 [16]: > 100 µM (inactive)
- GI50 [17]: > 100 µM (inactive)
- GI50 [18]: > 100 µM (inactive)
- GI50 [19]: > 100 µM (inactive)
- GI50 [20]: > 100 µM (inactive)
- GI50 [21]: > 100 µM (inactive)
- GI50 [22]: > 100 µM (inactive)
- GI50 [23]: > 100 µM (inactive)
- GI50 [24]: > 100 µM (inactive)
- GI50 [25]: > 100 µM (inactive)
- GI50 [26]: > 100 µM (inactive)
- GI50 [27]: > 100 µM (inactive)
- GI50 [28]: > 100 µM (inactive)
- GI50 [29]: > 100 µM (inactive)
- GI50 [30]: > 100 µM (inactive)
- GI50 [31]: > 100 µM (inactive)
- GI50 [32]: > 100 µM
- GI50 [33]: > 100 µM (inactive)
- GI50 [34]: > 100 µM (inactive)
- GI50 [35]: > 100 µM (inactive)
- GI50 [36]: > 100 µM (inactive)
- GI50 [37]: > 100 µM (inactive)
- GI50 [38]: > 100 µM (inactive)
- GI50 [39]: > 100 µM (inactive)
- GI50 [40]: > 100 µM (inactive)
- GI50 [41]: > 100 µM (inactive)
- GI50 [42]: > 100 µM (inactive)
- GI50 [43]: > 100 µM (inactive)
- GI50 [44]: > 100 µM (inactive)
- GI50 [45]: > 10 µM (inactive)
- GI50 [46]: > 100 µM (inactive)
- GI50 [47]: > 100 µM (inactive)
- GI50 [48]: > 100 µM (inactive)
- GI50 [49]: > 100 µM (inactive)
- GI50 [50]: > 100 µM (inactive)
- GI50 [51]: > 100 µM (inactive)
- GI50 [52]: > 100 µM (inactive)
- GI50 [53]: > 100 µM (inactive)

SMILES: Cc1ccc(C(=O)C(C)N)cc1 (configuration not stated)
- GI50 [1]: > 100 µM (inactive)
- GI50 [2]: > 100 µM (inactive)
- GI50 [3]: > 100 µM (inactive)
- GI50 [4]: > 100 µM (inactive)
- GI50 [5]: > 100 µM (inactive)
- GI50 [6]: > 100 µM (inactive)
- GI50 [7]: > 100 µM (inactive)
- GI50 [9]: > 100 µM (inactive)
- GI50 [10]: > 100 µM (inactive)
- GI50 [11]: > 100 µM (inactive)
- GI50 [54]: > 100 µM (inactive)
- GI50 [12]: > 100 µM (inactive)
- GI50 [13]: > 100 µM (inactive)
- GI50 [14]: > 100 µM (inactive)
- GI50 [15]: > 100 µM (inactive)
- GI50 [55]: > 100 µM (inactive)
- GI50 [16]: > 100 µM (inactive)
- GI50 [17]: > 100 µM (inactive)
- GI50 [18]: > 100 µM (inactive)
- GI50 [19]: > 100 µM (inactive)
- GI50 [20]: > 100 µM (inactive)
- GI50 [56]: > 100 µM (inactive)
- GI50 [21]: > 100 µM (inactive)
- GI50 [22]: > 100 µM (inactive)
- GI50 [23]: > 100 µM (inactive)
- GI50 [24]: > 100 µM (inactive)
- GI50 [25]: > 100 µM (inactive)
- GI50 [26]: > 100 µM (inactive)
- GI50 [27]: > 100 µM (inactive)
- GI50 [57]: > 100 µM (inactive)
- GI50 [28]: > 100 µM (inactive)
- GI50 [29]: > 100 µM (inactive)
- GI50 [30]: > 100 µM (inactive)
- GI50 [31]: > 100 µM (inactive)
- GI50 [32]: > 100 µM
- GI50 [33]: > 100 µM (inactive)
- GI50 [34]: > 100 µM (inactive)
- GI50 [35]: > 100 µM (inactive)
- GI50 [36]: > 100 µM (inactive)
- GI50 [37]: > 100 µM (inactive)
- GI50 [38]: > 100 µM (inactive)
- GI50 [39]: > 100 µM (inactive)
- GI50 [40]: > 100 µM (inactive)
- GI50 [41]: > 100 µM (inactive)
- GI50 [42]: > 100 µM (inactive)
- GI50 [43]: > 100 µM (inactive)
- GI50 [44]: > 100 µM (inactive)
- GI50 [45]: > 100 µM (inactive)
- GI50 [46]: > 100 µM (inactive)
- GI50 [58]: > 100 µM (inactive)
- GI50 [47]: > 100 µM (inactive)
- GI50 [48]: > 100 µM (inactive)
- GI50 [49]: > 100 µM (inactive)
- GI50 [50]: > 100 µM (inactive)
- GI50 [51]: > 100 µM (inactive)
- GI50 [52]: > 100 µM (inactive)
- GI50 [53]: > 100 µM (inactive)

SMILES: O=C1C=C2C(=CCOC2O)O1 (configuration not stated) [PATULIN]
- GI50 [1]: 0.189 µM (active)
- GI50 [2]: 0.723 µM (active)
- GI50 [4]: 3.49 µM (inactive)
- GI50 [6]: 0.267 µM (active)
- GI50 [7]: 0.365 µM (active)
- GI50 [8]: 1.29 µM (inactive)
- GI50 [59]: 0.733 µM (active)
- GI50 [11]: 1.37 µM (inactive)
- GI50 [12]: 2.84 µM (inactive)
- GI50 [13]: 1.98 µM (inactive)
- GI50 [14]: 1.12 µM (active)
- GI50 [55]: 4.28 µM (inactive)
- GI50 [16]: 2.1 µM (inactive)
- GI50 [56]: 2.28 µM (inactive)
- GI50 [21]: 1.16 µM (inactive)
- GI50 [57]: 0.881 µM (active)
- GI50 [29]: 1.08 µM (active)
- GI50 [30]: 0.223 µM (active)
- GI50 [32]: 0.668 µM
- GI50 [33]: 7.4 µM (inactive)
- GI50 [34]: 0.618 µM (active)
- GI50 [35]: 4.1 µM (inactive)
- GI50 [37]: 0.851 µM (active)
- GI50 [39]: 1 µM (active)
- GI50 [40]: 0.368 µM (active)
- GI50 [41]: 1.15 µM (inactive)
- GI50 [42]: 10.6 µM (inactive)
- GI50 [45]: 0.158 µM (active)
- GI50 [48]: 1.15 µM (inactive)
- GI50 [49]: 3.08 µM (inactive)
- GI50 [50]: 2.32 µM (inactive)
- GI50 [53]: 0.456 µM (active)

SMILES: Nc1ccc2cc(S(=O)(=O)O)cc(O)c2c1/N=N/c1ccc(NC(=O)Nc2ccc(/N=N/c3c(N)ccc4cc(S(=O)(=O)O)cc(O)c34)c(S(=O)(=O)O)c2)cc1S(=O)(=O)O
- GI50 [2]: > 100 µM (inactive)
- GI50 [3]: > 100 µM (inactive)
- GI50 [4]: > 100 µM (inactive)
- GI50 [5]: > 100 µM (inactive)
- GI50 [6]: > 100 µM (inactive)
- GI50 [7]: > 100 µM (inactive)
- GI50 [8]: > 100 µM (inactive)
- GI50 [9]: > 100 µM (inactive)
- GI50 [10]: > 100 µM (inactive)
- GI50 [59]: > 100 µM (inactive)
- GI50 [60]: > 100 µM (inactive)
- GI50 [11]: > 100 µM (inactive)
- GI50 [12]: > 84.1 µM (inactive)
- GI50 [13]: > 100 µM (inactive)
- GI50 [14]: > 100 µM (inactive)
- GI50 [15]: > 100 µM (inactive)
- GI50 [55]: 95.9 µM (inactive)
- GI50 [16]: > 100 µM (inactive)
- GI50 [17]: > 100 µM (inactive)
- GI50 [18]: > 100 µM (inactive)
- GI50 [21]: > 100 µM (inactive)
- GI50 [22]: > 100 µM (inactive)
- GI50 [24]: > 100 µM (inactive)
- GI50 [26]: > 100 µM (inactive)
- GI50 [57]: > 100 µM (inactive)
- GI50 [28]: > 100 µM (inactive)
- GI50 [29]: 98.6 µM (inactive)
- GI50 [30]: > 100 µM (inactive)
- GI50 [31]: 44.4 µM (inactive)
- GI50 [32]: > 91.2 µM
- GI50 [33]: > 79.6 µM (inactive)
- GI50 [34]: > 100 µM (inactive)
- GI50 [35]: > 100 µM (inactive)
- GI50 [36]: > 100 µM (inactive)
- GI50 [37]: > 100 µM (inactive)
- GI50 [38]: > 100 µM (inactive)
- GI50 [39]: > 100 µM (inactive)
- GI50 [40]: > 100 µM (inactive)
- GI50 [41]: > 100 µM (inactive)
- GI50 [42]: > 100 µM (inactive)
- GI50 [43]: > 100 µM (inactive)
- GI50 [44]: > 100 µM (inactive)
- GI50 [45]: > 69.3 µM (inactive)
- GI50 [58]: > 100 µM (inactive)
- GI50 [47]: > 100 µM (inactive)
- GI50 [48]: > 100 µM (inactive)
- GI50 [49]: > 54.8 µM (inactive)
- GI50 [50]: 97.7 µM (inactive)
- GI50 [51]: > 100 µM (inactive)
- GI50 [53]: > 100 µM (inactive)
